This note sets out measurements from article PMC8138013, “Rational design of innate defense regulator peptides as tumor vaccine adjuvants” (NPJ Vaccines, 2021).

In one test the test system is C57BL/6 mice. Put plainly: Leukocyte recruitment to peritoneal lavage. As to conditions: C57BL/6, 200 μg i.p., 24 h post-injection, N = 5, vs saline. It counts as in vivo, mouse. The procedure: C57BL/6 mice (N = 5) were intraperitoneally injected with 200 μg DP7, DP8, or DP10. An equal volume of sterile saline served as a control. Cells in the peritoneal lavage were collected and counted at 24 h postinjection. To analyze the recruitment of leukocytes, cells were stained with PE-anti-mouse-GR-1(clone RB6-8C5; BD Biosciences Cat# 553128), APC-anti-mouse-F4/80 (clone T45-2342; BD Biosciences Cat# 566787) or PE-anti-CD11b (clone M1/70; BD Biosciences Cat# 557397) at 4 °C for 30 min and then detected using a BD FACSCalibur (BD Biosciences, San Jose, CA). Neutrophils, inflammatory monocytes and macrophages were gated as Gr1^+F4/80^−, F4/80^+Gr1^+, and F4/80^+CD11b^+ cells, respectively.

Test [1] deals with BMDCs. Put plainly: BMDC maturation surface markers (flow cytometry). To be noted: CD11c+ BMDCs, 16 h, DP7 40 µg/ml, CpG 20 µg/ml. The test is classed as cell-based, mouse. Here is the method:
To study the effect of the CpG/DP7 complex on BMDCs, BMDCs were incubated with DP7 (40 µg/ml), CpG (20 µg/ml) or the CpG/DP7 combination for 16 h, stained with APC-anti-Mouse CD11c (Clone HL3; BD Biosciences Cat# 550261), FITC-anti-mouse-CD40 (Clone 3/23; BD Biosciences Cat# 561845), PerCP-Cy5.5-anti-mouse-CD80(clone 16-10A1; BD Biosciences Cat# 560526) or FITC-anti-mouse-CD86 (clone GL1; BD Biosciences Cat# 561962). BMDCs were gated as CD11c^+ and analyzed for CD40, CD80, CD86 expression by NovoExpress software (ACEA Biosciences, Inc.).

Test [2] relates to BMDCs. In words: RNA-Seq analysis of BMDCs challenged with DP7. It counts as cell-based, mouse. To be noted: DP7 30 min vs control.
The test system of test [3] is JAWSII cells. Put plainly: RT-qPCR of transcription factor mRNA after DP7, with or without chemical inhibitors. To be noted: for effect of inhibitor on DP7-induced mRNA expression of transcription factors: pretreatment 1 h at 10 μM (BIBR796 5 μM) or PTX 200 ng/ml 3 h, then DP7 30 min, compared to DP7 alone. The test is classed as cell-based, mouse. The procedure:
[The procedure below names another cell line; the source lists this cell line under the same test.] Small molecule inhibitors were employed to elucidate the upstream signaling pathways involved in the expression of 6 transcription factors: selumetinib (MEK1/2 inhibitor), BIBR796 (p38α inhibitor), sp600125 (pan JNK inhibitor), XMD8-92 (Erk5 inhibitor), sotrastaurin (PKCθ inhibitor), AS-605240 (PI3Kγ inhibitor), LY294002 (PI3Kα/β/γ inhibitor) and pertussis toxin (PTX, Gi protein inhibitor). BMDCs were pretreated with 10 μM selumetinib, 5 μM BIBR796, 10 μM sp600125, 10 μM XMD8-92, 10 μM sotrastaurin, 10 μM AS-605240, and 10 μM LY294002 at 37 °C for 1 h and with 200 ng/ml PTX at 37 °C for 3 h. BMDCs were exposed to DP7 at 37 °C for 30 min, and then the mRNA expression of the transcription factors was examined by RT-qPCR.
Total RNA was isolated using TRIzol reagent (Takara, Otsu, Japan), further purified by isopropanol/ethanol precipitation and finally dissolved in RNase-Free H2O. cDNA was prepared with 5× All-In-One MasterMix with the AccuRT Genomic DNA Removal Kit (Abm Canada Inc., Milton, ON, Canada) and employed as a template to assess the expression of various genes with EvaGreen 2× qPCR MasterMix (Abm Canada Inc., Milton, ON, Canada). The results were analyzed according to the relative expression normalized against β-actin.
For orientation: Real-time PCR tracks product formation cycle by cycle.

Test [4] concerns JAWSII cells. Put plainly: Intracellular calcium measurement (Fluo 3-AM). The test is classed as cell-based, mouse. To be noted: DP7 40 µg/ml, 15 and 30 min. The procedure: JAWSII cells (1 × 10^5) were seeded into 96-well clear–bottom black plates (Corning, New York, USA.) with six replicate wells per condition and cultured at 37 °C overnight. The cells were washed once with Hank’s buffer followed by incubation with the calcium fluorescence probe Fluo 3-AM (5 μM; excitation at 506 nm and emission at 526 nm) (Beyotime, Hangzhou, China) in Hank’s buffer at 37 °C for 30 min. After treatment, the cells were washed once with Hank’s buffer and subsequently stimulated with DP7 (40 µg/ml) for 15 min or 30 min. Fluorescence was measured by a Celligo® imaging cytometer. The Ca^2+ levels are represented by the mean fluorescence intensity of individual cells.
On the technique in general: A change in cytosolic calcium serves as a functional read-out for many receptors and channels.

The subject of the next test is GPR35. Put plainly: Receptor internalization assay. The test is classed as cell-based, mouse. As to conditions: BMDCs, DP7 40 μg/ml, 30 min, immunofluorescence; similar in JASWII and RAW264.7 cells. Here is the method: BMDCs (1 × 10^5) were plated on a microscope cover glass and cultured at 37 °C overnight. The next day, the cells were stimulated with 40 μg/ml DP7 at 37 °C for 30 min and then fixed in 4% paraformaldehyde in PBS at room temperature for 15 min. After washing with PBS 3 times, the BMDCs were blocked and permeabilized in buffer containing 0.1% bovine serum albumin (BSA), 0.5% Triton X-100, and 4% goat serum in PBS for 1 h. Afterward, the BMDCs were incubated with goat anti-GPR35 (clone M-14; Santa Cruz Biotechnology Cat# sc-79507; 1:100) in 3% BSA/PBS buffer at 4 °C for 16 h, followed by staining with the FITC-labeled anti-goat IgG (H + L) secondary antibody (1:100, ZSGB-BIO, Beijing, China) in 3% BSA/PBS buffer at 37 °C for 1 h. BMDCs were finally stained with DAPI and stored at 4 °C until imaging. Confocal imaging was performed with an LSM 800 Zeiss confocal microscope.

For test [5], the system named is JAWSII cells. Put plainly: Western blotting of Erk1/2 phosphorylation in JAWSII cells. It counts as cell-based, mouse. The text has this: Protein extracts from each sample were separated by 12% SDS-PAGE and transferred onto polyvinylidene fluoride membranes (Millipore, Billerica, MA). The membranes were blocked with 5% non-fat milk. Then, the protein bands were probed with primary antibodies against NF-κB p65 XP® Rabbit mAb (clone D14E12; Cell Signaling Technology Cat#8242), Phospho-NF-κB p65 (Ser536) Rabbit mAb (clone 93H1; Cell Signaling Technology Cat#3033), Erk1/2 Rabbit mAb (clone 137F5; Cell Signaling Technology Cat#4695) and Phospho- Erk1/2 (Thr202/Tyr204) XP® Rabbit mAb (clone D13.14.4E; Cell Signaling Technology Cat#4370) overnight at 4 °C. Then the membranes were incubated with horseradish peroxidase-conjugated goat anti-rabbit IgG (1:3000; Cell Signaling Technology Cat#7074). The blots derive from the same experiment were processed in parallel. The full, uncropped blot with molecular weight marker are shown in Supplementary Fig. 9.

With VQWRIRVAVIRK [DP7], in the test on C57BL/6 mice, the “number of macrophages in the peritoneal lavage” value is “modest but nonsignificant increase”; the “numbers of monocytes and neutrophils in the peritoneal lavage” value was “significant increase”. In the test with BMDCs [1], the “CD40-FITC positive BMDCs” value was 1.1%, the “CD80-PerCP-Cy5.5 positive BMDCs” value amounted to 28.9% and the “CD86-FITC positive BMDCs” value is 36.2%. Moreover, in the test on BMDCs [2], the “Fold change, Akap9” value came out at 2.08; the “Fold change, Arap2” value stood at 2.02; the “Fold change, Atxn1l” value stood at 2.04; the “Fold change, Btg2” value was determined as 2.47. Also, in the test with BMDCs [2], the “Fold change, Ccdc77” value turned out to be 2.06; the “Fold change, Ccno” value is 2.1; the “Fold change, Clec4b2” value is reported as 2.82; the “Fold change, Depdc5” value amounted to 2.01. Also, in the test on BMDCs [2], the “Fold change, Dgkh” value worked out at 2.4; the “Fold change, Egr1” value turned out to be 16.63; the “Fold change, Egr2” value is 2.4; the “Fold change, Egr3” value is 15.7. In addition, in the test with BMDCs [2], the “Fold change, Ethe1” value is 2.89; the “Fold change, F3” value is recorded as 2.23; the “Fold change, Fbxw7” value is 2.25; the “Fold change, Fos” value came to 6.34. Also, in the test with BMDCs [2], the “Fold change, Fosb” value was determined as 114.79; the “Fold change, Gm6377” value was 2.68; the “Fold change, Gm9159” value is on record as 2.03; the “Fold change, Gm12359” value was found to be 2.13. In addition, in the test with BMDCs [2], the “Fold change, Gpr35” value is 2.2; the “Fold change, Gpr52” value is 3.32; the “Fold change, Gsta1” value came to 3.08; the “Fold change, Ier2” value is 3.15. For the same compound, in the test on BMDCs [2], the “Fold change, Igj” value was found to be 2.68; the “Fold change, Jmjd1c” value was determined as 2.09; the “Fold change, Klhl15” value is 3.73; the “Fold change, Lmo1” value was 2.81. Also, in the test on BMDCs [2], the “Fold change, Lrrc40” value was 2.19; the “Fold change, Nr4a1” value is reported as 19.81; the “Fold change, Nr4a2” value is on record as 2.02; the “Fold change, Osm” value came out at 2.42. In addition, in the test with BMDCs [2], the “Fold change, Parp6” value amounted to 2.3; the “Fold change, Perp” value was determined as 2.05; the “Fold change, Phf8” value was 2.17; the “Fold change, Plk3” value turned out to be 2.75. Further, in the test on BMDCs [2], the “Fold change, Prph” value worked out at 2.22; the “Fold change, Prrg4” value was 2.05; the “Fold change, Slc38a9” value came to 2.15; the “Fold change, Suco” value turned out to be 2.19. In addition, in the test on BMDCs [2], the “Fold change, Szt2” value turned out to be 2.01; the “Fold change, Tjp1” value came out at 3.44; the “Fold change, Tmem51” value was determined as 2.05; the “Fold change, Tnfaip6” value turned out to be 2.01. Further, in the test on BMDCs [2], the “Fold change, Trib1” value turned out to be 2.69. Further, the “expression of Egr1, Egr2, Egr3, c-Fos, Fosb and Nr4a1 mRNA” value with JAWSII cells [3] (DP7 40 μg/ml, 30 min, vs nonstimulated) was “elevated expression”. Besides, the “intracellular Ca2+ levels” value in the test on JAWSII cells [4] is listed as “elevation”. For the same compound, in the test with GPR35, the “GPR35 localisation after stimulation” value is on record as “internalization of GPR35 into the cytoplasm”. Also, the Erk1/2 phosphorylation result with JAWSII cells [5] (JAWSII cells, DP7 30 and 60 min, western blotting) is given as “enhancement”.

On to `Oc1c2ccccc2c2c3c(cccc13)N=N2` [sp600125], for which the “effect of inhibitor on DP7-induced mRNA expression of transcription factors” value (“effect of inhibitor” for short) in the test on JAWSII cells [3] is recorded as “little or no inhibitory effect”.

As for `Cc1ccc(-n2nc(C(C)(C)C)cc2NC(=O)Nc2ccc(OCCN3CCOCC3)c3ccccc23)cc1` [BIBR796], the “effect of inhibitor” value in the test with JAWSII cells [3] is recorded as “little or no inhibitory effect”.

Turning to `CCOc1cc(N2CCC(O)CC2)ccc1Nc1ncc2c(n1)N(C)c1ccccc1C(=O)N2C` [XMD8-92], the “effect of inhibitor” value with JAWSII cells [3] was “little or no inhibitory effect”.

As for `O=c1cc(N2CCOCC2)oc2c(-c3ccccc3)cccc12` [LY294002], in the test on JAWSII cells [3], the “effect of inhibitor” value is “little or no inhibitory effect”.

On to `Cn1cnc2c(F)c(Nc3ccc(Br)cc3Cl)c(C(=O)NOCCO)cc21` [selumetinib], for which the “effect of inhibitor” value in the test with JAWSII cells [3] is recorded as “significantly suppressed”.

With `O=C1NC(=O)/C(=C\c2ccc3nccnc3c2)S1` [AS-605240], the “effect of inhibitor” value in the test on JAWSII cells [3] was “significantly suppressed”.

Take `CN1CCN(c2nc(C3=C(c4c[nH]c5ccccc45)C(=O)NC3=O)c3ccccc3n2)CC1` [sotrastaurin]: in the test with JAWSII cells [3], the “effect of inhibitor” value is listed as “significantly suppressed”.

For the compound “pertussis toxin [PTX, reference compound]”, the “effect of inhibitor” value in the test on JAWSII cells [3] is on record as “significantly suppressed”. The “effect on activation of pErk1/2 by DP7” value in the test with JAWSII cells [5] (JAWSII cells pretreated with PTX, then DP7 30 and 60 min) is “partially abolished”.
